In patent US10519152B2, “Compounds and their use in treating cancer” (AstraZeneca AB, priority 2017, dated 2019):

Biological target: T1, Estrogen Receptor (ERα) in MCF-7 human ductal carcinoma breast cell line (Homo sapiens, UniProt P03372)
T1 construct: endogenous in cells; host or cells: MCF-7
T1 sequence (P03372 1-595): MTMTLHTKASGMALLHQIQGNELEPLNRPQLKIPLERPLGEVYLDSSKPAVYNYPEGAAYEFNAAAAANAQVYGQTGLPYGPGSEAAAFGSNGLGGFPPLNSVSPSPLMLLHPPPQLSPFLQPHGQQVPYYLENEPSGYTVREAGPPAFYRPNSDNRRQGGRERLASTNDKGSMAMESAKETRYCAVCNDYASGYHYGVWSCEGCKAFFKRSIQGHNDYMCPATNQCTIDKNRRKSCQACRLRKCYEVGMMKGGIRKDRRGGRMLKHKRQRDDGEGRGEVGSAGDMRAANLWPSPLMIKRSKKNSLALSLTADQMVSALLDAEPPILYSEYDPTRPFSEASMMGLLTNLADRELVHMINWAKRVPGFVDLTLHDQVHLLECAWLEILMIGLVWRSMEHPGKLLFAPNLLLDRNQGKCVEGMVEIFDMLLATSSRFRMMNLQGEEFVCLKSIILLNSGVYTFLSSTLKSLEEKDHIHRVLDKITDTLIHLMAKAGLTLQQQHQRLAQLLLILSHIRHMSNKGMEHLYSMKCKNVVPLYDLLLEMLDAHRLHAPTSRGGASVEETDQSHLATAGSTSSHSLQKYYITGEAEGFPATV
Experiment: MCF-7 ER degradation assay (cell based immuno-fluorescence)
Details: MCF-7 cells; for ER degradation ≥ 90% at 0.3 μM: ER degradation by fulvestrant at 0.3 μM is defined as 100%; for DC50: 18-22 hours incubation, 50% reduction of ERα expression, single experiment or average of two or more, read-out: MCF-7 ER degradation IC50
Procedure, shortened: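 MCF-7 human ductal carcinoma breast cells were seeded at 3.75×10^4 cells per mL (40 μL per well) in 384 well plates with phenol red free DMEM containing 2 mM L-Glutamine and 5% (v/v) Charcoal/Dextran treated foetal calf serum. After overnight culture, compounds were acoustically dispensed, incubated 18-22 hours, then cells were formaldehyde-fixed and immunostained for ERα.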

| Compound | ER degradation ≥ 90% at 0.3 μM | DC50 |
| --- | --- | --- |
| Cc1ncsc1-c1ccc(CNC(=O)[C@@H]2C[C@@H](O)CN2C(=O)[C@@H](NC(=O)COCCCCCCCCOc2cc(F)c([C@@H]3c4[nH]c5ccccc5c4C[C@@H](C)N3CC(C)(C)F)c(F)c2)C(C)(C)C)cc1 [Example 12, (2S,4R)-1-((S)-2-(2-((8-(3,5-Difluoro-4-((1R,3R)-2-(2-fluoro-2-methylpropyl)-3-methyl-2,3,4,9-tetrahydro-1H-pyrido[3,4-b]indol-1-yl)phenoxy)octyl)oxy)acetamido)-3,3-dimethylbutanoyl)-4-hydroxy-N-(4-(4-methylthiazol-5-yl)benzyl)pyrrolidine-2-carboxamide] | •• | 6.6 nM |
| Cc1ncsc1-c1ccc(CNC(=O)[C@@H]2C[C@@H](O)CN2C(=O)[C@@H](NC(=O)COCCCCCNCCOc2cc(F)c([C@@H]3c4[nH]c5ccccc5c4C[C@@H](C)N3CC(C)(C)F)c(F)c2)C(C)(C)C)cc1 [Example 48, (2S,4R)-1-((S)-2-(2-((5-((2-(3,5-difluoro-4-((1R,3R)-2-(2-fluoro-2-methylpropyl)-3-methyl-2,3,4,9-tetrahydro-1H-pyrido[3,4-b]indol-1-yl)phenoxy)ethyl)amino)pentyl)oxy)acetamido)-3,3-dimethylbutanoyl)-4-hydroxy-N-(4-(4-methylthiazol-5-yl)benzyl)pyrrolidine-2-carboxamide] | • | 1.8 nM |
| Cc1ncsc1-c1ccc(CNC(=O)[C@@H]2C[C@@H](O)CN2C(=O)[C@@H](NC(=O)COCCCCCCOc2cc(F)c([C@@H]3c4[nH]c5ccccc5c4C[C@@H](C)N3CC(C)(C)F)c(F)c2)C(C)(C)C)cc1 [Example 51, (2S,4R)-1-((S)-2-(2-((6-(3,5-difluoro-4-((1R,3R)-2-(2-fluoro-2-methylpropyl)-3-methyl-2,3,4,9-tetrahydro-1H-pyrido[3,4-b]indol-1-yl)phenoxy)hexyl)oxy)acetamido)-3,3-dimethylbutanoyl)-4-hydroxy-N-(4-(4-methylthiazol-5-yl)benzyl)pyrrolidine-2-carboxamide] | • | 6.8 nM |
| Cc1ncsc1-c1ccc(CNC(=O)[C@@H]2C[C@@H](O)CN2C(=O)[C@@H](NC(=O)COCCCC2CN(CCOc3cc(F)c([C@@H]4c5[nH]c6ccccc6c5C[C@@H](C)N4CC(C)(C)F)c(F)c3)C2)C(C)(C)C)cc1 [Example 47, (2S,4R)-1-((S)-2-(2-(3-(1-(2-(3,5-difluoro-4-((1R,3R)-2-(2-fluoro-2-methylpropyl)-3-methyl-2,3,4,9-tetrahydro-1H-pyrido[3,4-b]indol-1-yl)phenoxy)ethyl)azetidin-3-yl)propoxy)acetamido)-3,3-dimethylbutanoyl)-4-hydroxy-N-(4-(4-methylthiazol-5-yl)benzyl)pyrrolidine-2-carboxamide] | • | 0.6 nM |
| Cc1ncsc1-c1ccc(CNC(=O)[C@@H]2C[C@@H](O)CN2C(=O)[C@@H](NC(=O)CCCOc2ccc(COc3cc(F)c([C@@H]4c5[nH]c6ccccc6c5C[C@@H](C)N4CC(C)(C)F)c(F)c3)nc2)C(C)(C)C)cc1 [Example 161, (2S,4R)-1-((S)-2-(4-((6-((3,5-Difluoro-4-((1R,3R)-2-(2-fluoro-2-methylpropyl)-3-methyl-2,3,4,9-tetrahydro-1H-pyrido[3,4-b]indol-1-yl)phenoxy)methyl)pyridin-3-yl)oxy)butanamido)-3,3-dimethylbutanoyl)-4-hydroxy-N-(4-(4-methylthiazol-5-yl)benzyl)pyrrolidine-2-carboxamide] | • | 1.2 nM |
| Cc1ncsc1-c1ccc(CNC(=O)[C@@H]2C[C@@H](O)CN2C(=O)[C@@H](NC(=O)CCCOc2cccc(COc3cc(F)c([C@@H]4c5[nH]c6ccccc6c5C[C@@H](C)N4CC(C)(C)F)c(F)c3)n2)C(C)(C)C)cc1 [Example 162, (2S,4R)-1-((S)-2-(4-((6-((3,5-Difluoro-4-((1R,3R)-2-(2-fluoro-2-methylpropyl)-3-methyl-2,3,4,9-tetrahydro-1H-pyrido[3,4-b]indol-1-yl)phenoxy)methyl)pyridin-2-yl)oxy)butanamido)-3,3-dimethylbutanoyl)-4-hydroxy-N-(4-(4-methylthiazol-5-yl)benzyl)pyrrolidine-2-carboxamide] | • | 1.8 nM |
| Cc1ncsc1-c1ccc(CNC(=O)[C@@H]2C[C@@H](O)CN2C(=O)[C@@H](NC(=O)COCCCCC(=O)NCCOc2cc(F)c([C@@H]3c4[nH]c5ccccc5c4C[C@@H](C)N3CC(C)(C)F)c(F)c2)C(C)(C)C)cc1 [Example 142, (2S,4R)-1-((S)-2-(2-((5-((2-(3,5-Difluoro-4-((1R,3R)-2-(2-fluoro-2-methylpropyl)-3-methyl-2,3,4,9-tetrahydro-1H-pyrido[3,4-b]indol-1-yl)phenoxy)ethyl)amino)-5-oxopentyl)oxy)acetamido)-3,3-dimethylbutanoyl)-4-hydroxy-N-(4-(4-methylthiazol-5-yl)benzyl)pyrrolidine-2-carboxamide] | •• | 0.2 nM |
| Cc1ncsc1-c1ccc(CNC(=O)[C@@H]2C[C@@H](O)CN2C(=O)[C@@H](NC(=O)COCCOCCOCCOc2cc(F)c([C@@H]3c4[nH]c5ccccc5c4C[C@@H](C)N3C[C@H](C)CO)c(F)c2)C(C)(C)C)cc1 [Example 101, (2S,4R)-1-((S)-2-(tert-butyl)-14-(3,5-difluoro-4-((1R,3R)-2-((S)-3-hydroxy-2-methylpropyl)-3-methyl-2,3,4,9-tetrahydro-1H-pyrido[3,4-b]indol-1-yl)phenoxy)-4-oxo-6,9,12-trioxa-3-azatetradecanoyl)-4-hydroxy-N-(4-(4-methylthiazol-5-yl)benzyl)pyrrolidine-2-carboxamide] | • | 1.8 nM |
| Cc1ncsc1-c1ccc([C@H](C)NC(=O)[C@@H]2C[C@@H](O)CN2C(=O)[C@@H](NC(=O)C(F)(F)OCCOCCCCOc2cc(F)c([C@@H]3c4[nH]c5ccccc5c4C[C@@H](C)N3CC(C)(C)F)c(F)c2)C(C)(C)C)cc1 [Example 122, (2S,4R)-1-((S)-2-(2-(2-(4-(3,5-Difluoro-4-((1R,3R)-2-(2-fluoro-2-methylpropyl)-3-methyl-2,3,4,9-tetrahydro-1H-pyrido[3,4-b]indol-1-yl)phenoxy)butoxy)ethoxy)-2,2-difluoroacetamido)-3,3-dimethylbutanoyl)-4-hydroxy-N—((S)-1-(4-(4-methylthiazol-5-yl)phenyl)ethyl)pyrrolidine-2-carboxamide] | • | 2 nM |
| Cc1ncsc1-c1ccc(CNC(=O)[C@@H]2C[C@@H](O)CN2C(=O)[C@@H](NC(=O)COCc2ccnc(COc3cc(F)c([C@@H]4c5[nH]c6ccccc6c5C[C@@H](C)N4CC(C)(C)F)c(F)c3)c2)C(C)(C)C)cc1 [Example 134, (2S,4R)-1-((S)-2-(2-((2-((3,5-Difluoro-4-((1R,3R)-2-(2-fluoro-2-methylpropyl)-3-methyl-2,3,4,9-tetrahydro-1H-pyrido[3,4-b]indol-1-yl)phenoxy)methyl)pyridin-4-yl)methoxy)acetamido)-3,3-dimethylbutanoyl)-4-hydroxy-N-(4-(4-methylthiazol-5-yl)benzyl)pyrrolidine-2-carboxamide] | • | 0.5 nM |
| Cc1ncsc1-c1ccc(CNC(=O)C2CC(O)CN2C(=O)C(NC(=O)COCCOc2cc(F)c(C3c4[nH]c5ccccc5c4CC(C)N3CC(C)(C)F)c(F)c2)C(C)(C)C)cc1 [Example 40, (2S,4R)-1-((S)-2-(2-(2-(3,5-Difluoro-4-((1R,3R)-2-(2-fluoro-2-methylpropyl)-3-methyl-2,3,49-tetrahydro-1H-pyrido[3,4-b]indol-1-yl)phenoxy)ethoxy)acetamido)-3,3-dimethylbutanoyl)-4-hydroxy-N-(4-(4-methylthiazol-5-yl)benzyl)pyrrolidine-2-carboxamide] | • | 0.6 nM |
| Cc1ncsc1-c1ccc(CNC(=O)[C@@H]2C[C@@H](O)CN2C(=O)[C@@H](NC(=O)COCCCCOCCOc2cc(F)c([C@@H]3c4[nH]c5ccccc5c4C[C@@H](C)N3CC(C)(C)F)c(F)c2)C(C)(C)C)cc1 [Example 16, (2S,4R)-1-((S)-2-(2-(4-(2-(3,5-Difluoro-4-((1R,3R)-2-(2-fluoro-2-methylpropyl)-3-methyl-2,3,4,9-tetrahydro-1H-pyrido[3,4-b]indol-1-yl)phenoxy)ethoxy)butoxy)acetamido)-3,3-dimethylbutanoyl)-4-hydroxy-N-(4-(4-methylthiazol-5-yl)benzyl)pyrrolidine-2-carboxamide] | •• | 0.8 nM |
